Measurements published in patent publication US20250345356A1, “TIRAPAZAMINE COMPOSITIONS AND METHODS” (priority 2024, published 2025).
Like-named read-outs stand apart in the source and are kept apart here.

How the values were obtained:
HCC = details: cited from earlier work
[1] = PK of TPZ and metabolites SR4317 and SR4330 after intra-arterial injection of TPZ in NS vs HPβCD; type: in vivo, Sprague Dawley rats; details: for dose proportionality of plasma concentrations: 3.33 mg/kg vs. 7 mg/kg in either solvent; for reduction of plasma concentrations in the curve of HPβCD than that of NS: after TPZ in 1% HPβCD vs NS; for AUClast, HβC Mean / Cmax, HβC Mean / AUClast, Normal Saline (NS) Mean / Cmax, Normal Saline (NS) Mean: rats
Description: Purpose of the study: To evaluate the pharmacokinetics (PK) of tirapazamine and its metabolites, SR4317 and SR4330 [Graham, M A et al. Cancer Chemother. Pharmacol. (1997) 40 (1): 1-10], after injection of TPZ in 1% HPβCD or normal saline.
Animals: Twenty-four female (12) and male (12) Sprague Daley (SD) rats, weight 200-250 grams, respectively, with femoral artery and jugular vein cannulated, were purchased from, Taconic. Two extra cannulated male and female rates were used to test tolerability with buffer. Each rate was housed individually to safeguard the vessel catheters.
The study parameters are shown in Table 22. began after a 3-day period of adjustment to the animal facility. The study compound was injected into the femoral artery catheter (FAC at 2-1 m (by slow injection. Blood samples were collected from a jugular vein catheter (JVC) at 6 timepoints: 0 (baseline) and after drug administration at 15 and 30 minutes, 1 hr, 2 hr, and 6 hours. The volume of blood sample for each time point was approximately 0.6 mL. Plasma samples were collected in tubes containing sodium heparin as anti-coagulant. Plasma was prepared and frozen in −80° C. Rats were euthanized after the last blood sample (euthanized after the 6 hr time point).
Male rats were around 250 grams, and female 200 grams. There were 8 groups with Groups 1-4 females, and […]. Each group had 3 rats. TPZ was dissolved in NS or […] at a concentration 0.7 mg/mL.
The concentrations of TPZ and its metabolites, SR4317 and SR4330, in rat plasma samples were analyzed using liquid chromatography Tandem Mass Spectrometry (LC-MS) by Primera Analytical Solutions Corp (Princeton, NJ). Standards for TPZ, SR4317 and SR4330 were provided by Teclison, Inc. (Princeton, NJ) for calibration. All analytical data were reviewed for completeness and accuracy. Data transferred manually was cross-checked against source data which was part of the study raw data.
LC-MS analysis was conducted with Sciex 4000 with a Shimadzu LC-30 System.
The concentration data was imported and plotted with SAS program as ADPC (Analysis Dataset of Pharmacokinetics Concentrations) dataset. PK parameters calculated based on ADPC were output as an Analysis Dataset of Pharmacokinetics Parameters (ADPP) dataset.
PK parameters of each profile were calculated by non-compartmental analysis using SAS programming. BLQ (Below the Limit of Quantification) observation prior to the first measurable concentration was imputed as zero, otherwise, the BLQ observation was left as missing.
An apparent first-order terminal elimination rate constant (Kel) was calculated by linear least-squares regression analysis using at least three points (excluding Cmax) in the terminal log-linear phase. Uniform weighting was adopted when performing regression analysis. Linear-up/log-down approach was utilized to calculate AUC.
A linear model was built to evaluate the effect of solution on the PK parameters, adjusting for sex and dose. The model included sex (F, M), solution type (Normal saline, Hydroxypropyl-beta-Cyclodextrin “HP-beta-CD”), and dose (mg) as fixed effects. Sex and solution type are categorical variables (meaning a variable based on a qualitative, not numerical, property) and dose is a continuous variable (meaning a random variable that can take on an infinite number of values within a certain interval that represents measurable data). Separate models were built for each combination of analyte (TPZ, SR4317 and SR4330) and PK parameters (AUClast and Cmax) using the BY statement, which divides the observations from an input data set into groups for processing.
The difference of lease squared means between solution types was estimated. 95% confidence intervals (CI), and p-values for the difference were presented. The significance level (alpha) was set at 0.05, meaning that a p-value less than 0.05 was considered statistically significant.

[2] = cited from earlier work
[3] = mice, cited from earlier work
[4] = 1-week intravenous study, single dose level of 1 g; cited from earlier work
[5] = tested on: advanced head and neck cancer; details: intent-to-treat, with radiotherapy 70 Gy; cited from earlier work
[6] = intra-arterial TPZ 3.33 mg/kg in HPβCD
[7] = intra-arterial TPZ 3.33 mg/kg in NS
[8] = intra-arterial TPZ 7 mg/kg in HPβCD
[9] = intra-arterial TPZ 7 mg/kg in NS

Molecule	AUClast HβC/NS Ratio (%) ([1]; 3.33 mg/kg)	Cmax HβC/NS Ratio (%) ([1]; 3.33 mg/kg)	dose proportionality of plasma concentrations [1]	AUClast HβC/NS Ratio (%) ([1]; 7 mg/kg)	Cmax HβC/NS Ratio (%) ([1]; 7 mg/kg)	reduction of plasma concentrations in the curve of HPβCD than that of NS [1]	AUClast, HβC Mean [1, 6] [ng·h/mL]	Cmax, HβC Mean [1, 6] [ng/mL]	AUClast, Normal Saline (NS) Mean [1, 7] [ng·h/mL]	Cmax, Normal Saline (NS) Mean [1, 7] [ng/mL]	AUClast, HβC Mean [1, 8] [ng·h/mL]	Cmax, HβC Mean [1, 8] [ng/mL]	AUClast, Normal Saline (NS) Mean [1, 9] [ng·h/mL]	Cmax, Normal Saline (NS) Mean [1, 9] [ng/mL]	also measured
COc1cccc2c1C(=O)c1c(O)c3c(c(O)c1C2=O)C[C@@](O)(C(=O)CO)C[C@@H]3O[C@H]1C[C@H](N)[C@H](O)[C@H](C)O1 [doxorubicin]	–	–	–	–	–	–	–	–	–	–	–	–	–	–	necrosis in the HCC within the territory of HAL (HCC; Day 1 post-treatment, tirapazamine 3 mg/kg, doxorubicin 10 mg/kg, transient left HAL): about 5%; pathological changes in HCCs (HCC; Day 7, 10 mg/kg with left HAL): Little to no pathological changes
Nc1nc2ccccc2[n+]([O-])n1 [SR4317]	78.09	80.62	dose proportional effect was observed	78.86%	88.17	20-30%	479.96	490.17	614.61	608.00	1210.97	1122.67	1535.52	1273.33	–
2-hydroxypropyl-β-cyclodextrin [HPβCD]	–	–	–	–	–	–	–	–	–	–	–	–	–	–	daily dose considered non-toxic ([2]; at least for 14 days): < 16 g; tolerability ([2]; daily oral doses of 4-8 g for at least 2 weeks): well tolerated and safe; adverse effects ([2]; oral daily doses of 16-24 g for 14 days, healthy volunteers): increased incidence of soft stools and diarrhea; lethality ([3]; single intravenous dose of up to 2 g/kg): not lethal; acute toxicity ([3]; up to 10 gram/kg intra-peritoneal (i.p.) injection): neither lethal nor did it produce any toxicity; adverse effects [4]: no adverse effects were reported
Nc1nnc2ccccc2n1 [SR4330]	73.09	77.65	dose proportional effect was observed	74.37& %	89.31	20-30%	99.89	81.88	136.67	105.45	385.93	254.83	518.92	285.33	half-life compared with TPZ and SR4317 ([1]; rat plasma): longer than TPZ and SR4317
N.N.[Cl][Pt][Cl] [CIS, cisplatin]	–	–	–	–	–	–	–	–	–	–	–	–	–	–	2-year OS rates [5]: 65.7%
